Laboratory results from the SangsterLogP compilation.

Experiment: method code SF-AS, from DOI: 10.1515/znb-1972-0211, PMID: 4401834
Conditions: pH 7.0

Structure (SMILES) | logD
CC(=O)C(C#N)=NNc1ccccc1Cl | 4.01
COC(=O)C(C#N)=NNc1ccccc1 | 2.59
COC(=O)C(C#N)=NNc1ccc(C(F)(F)F)cc1 | 3.79
CCOC(=O)/C(C#N)=N\Nc1cccc(Cl)c1 | 3.94
CCOC(=O)/C(C#N)=N\Nc1ccc(Cl)c(C(F)(F)F)c1 | 4.86
CCS(=O)(=O)c1ccc(C(F)(F)F)cc1NN=C(C#N)C(C)=O | 4.22
COC(=O)/C(C#N)=N\Nc1cc(C(F)(F)F)cc(C(F)(F)F)c1 | 5.02
CC(=O)C(C#N)=NNc1ccc2c(c1)OC(F)(F)C(F)(F)O2 | 5.31
CC(C)(C)C(=O)C(C#N)=NNc1ccc(Cl)cc1C(F)(F)F | 5.67
COC(=O)C(C#N)=NNc1ccc(S(=O)(=O)C(F)(F)F)cc1 | 4.22
CC(=O)C(C#N)=NNc1cccc(Cl)c1 | 3.91
CC(=O)C(C#N)=NNc1ccc(SC(F)(F)F)cc1 | 5.04
CC(C)(C)C(=O)C(C#N)=NNc1ccc2c(c1)OC(F)(F)C(F)(F)O2 | 4.96
CC(=O)C(C#N)=NNc1ccc(Cl)cc1C | 4.28
CC(C)(C)C(=O)C(C#N)=NNc1cccc(Cl)c1 | 4.62
CC(=O)C(C#N)=NNc1ccc(Cl)cc1 | 4.13
COC(=O)C(C#N)=NNc1ccc2c(c1)OC(F)(F)C(F)(F)O2 | 4.86
COC(=O)/C(C#N)=N\Nc1ccc(SC(F)(F)F)cc1 | 4.27
CC(C)(C)C(=O)C(C#N)=NNc1cc(C(F)(F)F)cc(C(F)(F)F)c1 | 5.44
Cc1cc(Cl)ccc1NN=C(C#N)C(=O)C(C)(C)C | 4.31

The remaining lines, values ahead:

logD | Structure (SMILES)
3.56 | COC(=O)/C(C#N)=N\Nc1cccc(Cl)c1
3.82 | CCOC(=O)/C(C#N)=N\Nc1cc(Cl)cc(Cl)c1
4.56 | CC(=O)C(C#N)=NNc1ccc(Cl)c(Cl)c1
5.22 | COC(=O)/C(C#N)=N\Nc1cc(Cl)c(Cl)c(Cl)c1
4.68 | CC(=O)C(C#N)=NNc1cc(Cl)cc(Cl)c1
4.42 | COC(=O)C(C#N)=NNc1cc(C(F)(F)F)ccc1Cl
4.45 | CCOC(=O)C(C#N)=NNc1cc(C(F)(F)F)ccc1Cl
5.03 | CCOC(=O)C(C#N)=NNc1cc(Cl)c(Cl)c(Cl)c1
3.72 | COC(=O)C(C#N)=NNc1ccccc1C(F)(F)F
4.5 | COC(=O)/C(C#N)=N\Nc1cc(Cl)cc(Cl)c1
5.86 | CC(C)(C)C(=O)C(C#N)=NNc1cc(Cl)c(Cl)cc1Cl
3.78 | COC(=O)C(C#N)=NNc1cccc(C(F)(F)F)c1
5.21 | CCOC(=O)/C(C#N)=N\Nc1cc(Cl)c(Cl)cc1Cl
3.38 | CCOC(=O)C(C#N)=NNc1ccccc1Cl
2.81 | COC(=O)C(C#N)=NNc1cc(C#N)ccc1C#N

Experiment: method code SF, from DOI: 10.1515/znb-1972-0211, PMID: 4401834
Conditions: pH 7.0

logD | Structure (SMILES)
5.15 | COC(=O)/C(C#N)=N\Nc1cc(Cl)c(Cl)cc1Cl
